For 1 compound, IC50 results are on record in ChEMBL document CHEMBL1159265, “Bis(sulfato)-cyclosiphonodictyol A, a new disulfated sesquiterpene-hydroquinone from a deep water collection of the Marine sponge Siphonodictyon coralliphagum” (J Nat Prod, 1995).

The assay addresses Leukotriene B4 receptor 1 (Homo sapiens, UniProt Q15722). As to the kind of experiment: Displacement of [3H]LTB4 from LTB4 receptor in human neutrophils. (In a radioligand displacement assay an active substance lowers the binding of a labelled ligand.)

Chain of Leukotriene B4 receptor 1 (Q15722 whole entry): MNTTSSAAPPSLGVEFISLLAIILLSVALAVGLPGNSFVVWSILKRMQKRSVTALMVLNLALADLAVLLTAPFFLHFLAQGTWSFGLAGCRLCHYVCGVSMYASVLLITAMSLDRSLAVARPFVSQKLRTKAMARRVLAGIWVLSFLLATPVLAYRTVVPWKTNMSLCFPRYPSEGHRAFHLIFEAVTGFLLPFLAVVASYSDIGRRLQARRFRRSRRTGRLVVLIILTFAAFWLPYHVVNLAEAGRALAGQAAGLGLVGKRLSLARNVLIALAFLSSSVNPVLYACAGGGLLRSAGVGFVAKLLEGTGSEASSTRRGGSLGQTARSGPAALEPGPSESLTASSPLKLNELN

On to `CC1(C)CCC[C@]2(C)[C@H]3Cc4c(OS(=O)(=O)O)ccc(OS(=O)(=O)O)c4CO[C@]3(C)CC[C@@H]12`, for which the IC50 (usually the midpoint of a concentration-inhibition curve) turned out to be 44.5 µM.
